These results are taken from US11452717B2, “Small molecule activators of nicotinamide phosphoribosyltransferase (NAMPT) and uses thereof” (Sanford Burnham Prebys Medical Discovery Institute, priority 2017, dated 2022).

Assay [1] concerns human smooth muscle cells. The settings on record: serial quantification of the proportion of cells with senescence-associated beta-galactosidase activity; cited from earlier work.
A further assay deals with NAMPT enzyme (Homo sapiens (Human), UniProt P43490). Put plainly: Enzyme Assay and NMN Detection (NAMPT reaction, fluorescence detection of NMN). The format is biochemical. The settings on record: NAMPT activation, NMN formation. In outline: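 NMN formed was read at ex380/em460 after acetophenone/KOH derivatization and formic acid addition, using a same-day calibration curve. Final conditions: NAMPT 16 nM, nicotinamide 5 uM, PRPP 6.25 uM, ATP 120 uM, pyrophosphatase 0.04 U/ml, pH 7.5 HEPES buffer with MgCl2 and TCEP, 2 h at room temperature.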
Chain of NAMPT enzyme (P43490 whole entry, species assumed): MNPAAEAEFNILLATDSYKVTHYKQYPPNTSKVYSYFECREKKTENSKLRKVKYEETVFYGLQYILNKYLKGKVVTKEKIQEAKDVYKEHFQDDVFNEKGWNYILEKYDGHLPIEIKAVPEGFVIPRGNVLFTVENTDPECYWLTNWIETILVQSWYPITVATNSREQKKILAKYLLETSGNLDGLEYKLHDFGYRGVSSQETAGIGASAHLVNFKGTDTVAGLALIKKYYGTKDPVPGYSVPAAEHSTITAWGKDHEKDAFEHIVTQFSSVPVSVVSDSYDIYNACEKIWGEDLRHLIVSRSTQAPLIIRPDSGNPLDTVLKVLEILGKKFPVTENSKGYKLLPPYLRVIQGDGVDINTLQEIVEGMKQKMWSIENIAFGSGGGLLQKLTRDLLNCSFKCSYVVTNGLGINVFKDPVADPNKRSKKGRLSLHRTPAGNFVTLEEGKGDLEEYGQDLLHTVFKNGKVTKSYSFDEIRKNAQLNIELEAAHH

The conditions of assay [2]: adult mice, specific deletion of NAMPT; administration of the NAD precursor; cited from earlier work.

For `O=C(/C=C/c1cccnc1)NCCCCC1CCN(C(=O)c2ccccc2)CC1` [FK866], in assay [1], the “senescence in smooth muscle cells” value is listed as “induced premature senescence”. In general, EC50 refers to the concentration needed to bring the measured effect to its halfway point. Low values mean higher potency in that assay, high ones lower potency in that assay. `O=C(NCc1ccncc1)Nc1ccc(C(=O)Nc2ccccc2)cc1` [N-phenyl-4-(3-(pyridin-4-ylmethyl)ureido)benzamide]: at NAMPT enzyme (Table B-2), the EC50 lay within 2000 to 5000 nM. The same measure, in the same setting: next, `CCCNC(=O)c1ccc(NC(=O)NCc2ccncc2)cc1` [N-propyl-4-(3-(pyridin-4-ylmethyl)ureido)benzamide]: 2000 to 5000 nM. On NAMPT enzyme (Table B-1), `O=C(NCc1cn[nH]c1)Nc1ccc(NS(=O)(=O)c2ccccc2)cc1` [N-{4-[3-(1H-Pyrazol-4-ylmethyl)-ureido]-phenyl}-benzenesulfonamide] registered an EC50 below 100 nM. Compound `O=C(NCc1ccncc1)Nc1ccc(S(=O)(=O)N2CCc3cc(C(F)(F)F)ccc3C2)cc1` [Pyridin-4-ylmethyl-3-[4-(6-trifluoromethyl-3,4-dihydro-1H-isoquinoline-2-sulfonyl)-phenyl]-urea] registered an EC50 on NAMPT enzyme (Table B-2) of 100 to 2000 nM. Same read-out and setting: with `O=C(NCc1ccncc1)Nc1ccc(S(=O)(=O)N2CCc3cccc(C(F)(F)F)c3C2)cc1` [Pyridin-4-ylmethyl-3-[4-(8-trifluoromethyl-3,4-dihydro-1H-isoquinoline-2-sulfonyl)-phenyl]-urea] the figure was 100 to 2000 nM; with `O=C(NCc1ccncc1)Nc1ccc(S(=O)(=O)N2CCCC2)cc1` [Pyridin-4-ylmethyl-3-[4-(pyrrolidine-1-sulfonyl)-phenyl]-urea], 100 to 2000 nM. Regarding `O=C(NCc1ccncc1)Nc1ccc(S(=O)(=O)c2nccs2)cc1` [Pyridin-4-ylmethyl-3-[4-(thiazole-2-sulfonyl)-phenyl]-urea], at NAMPT enzyme (Table B-6), the EC50 was 100 to 2000 nM. Take `NC(=O)c1ccc[n+]([C@@H]2O[C@H](CO)[C@@H](O)[C@H]2O)c1` [nicotinamide riboside]: the “exercise performance, mass and strength of muscle” value in assay [2] was “rapidly and uniformly restored”.
